Entries after “also recorded” stand apart in the source; their conditions may differ. Like-named read-outs stand apart in the source and are kept apart here.
What was measured:
human GC-A = biological target: T1, human GC-A (Homo sapiens, UniProt P16066); test: cGMP potentiation (HTRF) in human GC-A overexpressing HEK293 cells with EC20 ANP; format: cell-based; conditions: for IC50: Table 3, additional compounds, modulation of pGC-A; for Emax: HEK293
T1 construct: host or cells: HEK293
T1 sequence (P16066 33-1061): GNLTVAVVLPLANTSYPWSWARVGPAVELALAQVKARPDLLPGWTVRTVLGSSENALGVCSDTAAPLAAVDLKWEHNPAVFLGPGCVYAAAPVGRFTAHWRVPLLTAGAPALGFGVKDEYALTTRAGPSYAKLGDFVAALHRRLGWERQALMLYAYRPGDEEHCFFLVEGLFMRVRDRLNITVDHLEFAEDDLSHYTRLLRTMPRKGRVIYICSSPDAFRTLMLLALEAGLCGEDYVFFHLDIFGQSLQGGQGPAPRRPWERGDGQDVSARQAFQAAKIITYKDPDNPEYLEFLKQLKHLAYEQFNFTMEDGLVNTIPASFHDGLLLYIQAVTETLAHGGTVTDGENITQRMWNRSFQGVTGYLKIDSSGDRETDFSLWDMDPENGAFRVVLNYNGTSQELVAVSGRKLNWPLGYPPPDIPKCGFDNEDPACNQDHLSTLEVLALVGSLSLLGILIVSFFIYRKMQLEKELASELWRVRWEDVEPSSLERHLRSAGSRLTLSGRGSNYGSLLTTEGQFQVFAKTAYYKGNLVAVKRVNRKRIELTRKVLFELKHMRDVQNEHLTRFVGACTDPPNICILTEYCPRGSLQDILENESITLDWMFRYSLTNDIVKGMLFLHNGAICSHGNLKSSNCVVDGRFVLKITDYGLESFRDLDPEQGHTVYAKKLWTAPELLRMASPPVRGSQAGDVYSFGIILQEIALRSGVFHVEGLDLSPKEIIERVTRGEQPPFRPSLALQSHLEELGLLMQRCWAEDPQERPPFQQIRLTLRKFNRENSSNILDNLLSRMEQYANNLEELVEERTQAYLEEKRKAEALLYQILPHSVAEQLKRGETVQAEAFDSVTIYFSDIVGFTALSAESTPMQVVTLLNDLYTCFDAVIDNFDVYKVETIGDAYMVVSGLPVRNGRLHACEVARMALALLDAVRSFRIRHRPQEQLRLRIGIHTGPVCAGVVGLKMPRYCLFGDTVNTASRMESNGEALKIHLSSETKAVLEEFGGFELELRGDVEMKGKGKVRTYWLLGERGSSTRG
T1 sequence (P01160 124-151 partner limits assumed): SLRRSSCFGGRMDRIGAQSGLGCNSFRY
Procedure: Test compounds were evaluated for potentiation of cGMP in human GC-A overexpressing HEK293 cells (Cardiorenal Research Laboratory, Mayo Clinic). Test compounds at 10 mM DMSO stock concentration were dispensed into 384 well small volume white plates using Tecan D300e digital dispenser starting at 5 μM concentration and diluted 2-fold for 10-point concentration response. Wells were backfilled with DMSO such that the final concentration of DMSO in all wells was maintained at 0.3% DMSO. Atrial natriuretic peptide (ANP, Phoenix Pharmaceuticals) peptide ANP was prepared as working stock aliquots at 5 μM in phosphate-buffered solution (PBS) with 0.1% bovine serum albumin (BSA) and diluted to […] in buffer+Tween20 at 0.3% and added to plates to a final concentration of 20 pM (EC20). GC-A cells in suspension […] in OptiMem media (11058-021) supplemented with 2% fetal bovine serum were plated at 1×10^6 cells/mL and assay plates were spun at 1000 rpm for 30 sec and incubated at RT for 30 min. GC-A-mediated activation of cGMP production was measured using cGMP CisBio detection homogenous time-resolved florescence (HTRF) competition assay using labeled-cGMP in human GC-A-overexpressing HEK293 cells. 5 μL of d-2 acceptor was dispensed into each well followed by addition of 5 μL of Anti-cGMP Eu-Cryptate antibody donor and plates were spun at 1000 rpm for 30 sec and incubated in the dark at RT for 1 hr. HTRF florescence was read on the ClarioStar microplate reader (BMG). A 100% response was determined from wells in the absence of compound and presence of saturating concentration of ANP (10 nM), and 0% response was determined from wells containing an EC20 concentration of ANP determined for each new lot of ANP. EC20 values of ANP were maintained in the range of 15-30 pM across all assay plates tested.
Test compounds were tested in the absence of ANP to determine agonist activity.

hERG channel = hERG channel (Homo sapiens, UniProt Q12809); test: hERG binding / selectivity over hERG
[1] = cited from earlier work
[2] = Table 1, 100% = saturating ANP (10 nM), 0% = EC20 ANP, read-out: Emax (%)
[3] = Table 1, Formula (I-a), cGMP potentiation, ANP at EC20, read-out: EC50

Sequence of hERG channel (Q12809 whole entry): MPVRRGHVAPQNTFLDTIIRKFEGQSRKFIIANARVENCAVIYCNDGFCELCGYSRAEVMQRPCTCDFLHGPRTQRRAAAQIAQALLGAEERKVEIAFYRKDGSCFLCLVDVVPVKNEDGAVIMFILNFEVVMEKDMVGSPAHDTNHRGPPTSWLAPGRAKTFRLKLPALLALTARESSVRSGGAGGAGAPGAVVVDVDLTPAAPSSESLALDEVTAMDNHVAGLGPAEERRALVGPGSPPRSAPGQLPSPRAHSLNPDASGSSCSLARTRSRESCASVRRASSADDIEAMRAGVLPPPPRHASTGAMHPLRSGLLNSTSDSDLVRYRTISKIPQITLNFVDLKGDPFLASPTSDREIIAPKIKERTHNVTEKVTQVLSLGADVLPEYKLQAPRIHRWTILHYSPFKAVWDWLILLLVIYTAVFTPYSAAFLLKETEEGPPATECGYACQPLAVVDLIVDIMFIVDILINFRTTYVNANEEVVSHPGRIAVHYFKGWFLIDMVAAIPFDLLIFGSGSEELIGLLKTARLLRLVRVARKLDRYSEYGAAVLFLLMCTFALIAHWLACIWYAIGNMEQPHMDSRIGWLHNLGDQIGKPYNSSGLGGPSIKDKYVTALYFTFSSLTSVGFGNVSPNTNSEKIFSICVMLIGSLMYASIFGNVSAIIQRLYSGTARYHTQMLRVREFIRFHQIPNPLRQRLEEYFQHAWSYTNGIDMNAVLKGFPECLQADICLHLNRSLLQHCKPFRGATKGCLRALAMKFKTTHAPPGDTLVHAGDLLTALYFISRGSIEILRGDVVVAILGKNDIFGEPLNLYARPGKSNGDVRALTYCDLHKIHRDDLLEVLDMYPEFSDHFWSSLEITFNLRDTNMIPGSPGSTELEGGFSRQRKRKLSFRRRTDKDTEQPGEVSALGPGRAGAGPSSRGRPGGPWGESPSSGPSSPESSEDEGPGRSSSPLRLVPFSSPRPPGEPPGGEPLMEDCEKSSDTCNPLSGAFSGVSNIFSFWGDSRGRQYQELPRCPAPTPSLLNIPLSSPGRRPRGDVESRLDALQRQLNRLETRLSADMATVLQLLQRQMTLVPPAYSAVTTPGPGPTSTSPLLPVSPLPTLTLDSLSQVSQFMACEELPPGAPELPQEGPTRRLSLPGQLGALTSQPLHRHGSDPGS

Q: With `CN(C)CCN1CCCC(C(=O)Nc2nc3c(F)cc(C(F)(F)F)cc3s2)C1` (centres unmarked) [JUF-S3-004] as the compound, how does the IC50 (human GC-A) read?
A: > 5 µM

Q: For `Cc1cc(F)c2nc(NC(=O)C3CCCN(CCN(C)C)C3)sc2c1` (centres unmarked) [JUF-S3-005], which IC50 (human GC-A) is on record?
A: 0.9 µM

Q: With `COc1cc(F)c2nc(NC(=O)C3CCCN(CCN(C)C)C3)sc2c1` (centres unmarked) [JUF-S3-006] as the compound, how does the Emax (human GC-A; Table 3, 100% = saturating ANP (10 nM), 0% = EC20 ANP, read-out: Emax (%)) read?
A: 112%

Q: And the IC50 (human GC-A)?
A: 6.7 µM

Q: With `CCOc1cc(F)c2nc(NC(=O)C3CCCN(CCN(C)C)C3)sc2c1` (centres unmarked) [JUF-S3-010] as the compound, how does the IC50 (human GC-A) read?
A: > 5 µM

Q: With `CN(C)c1ccc(N2CCCC(C(=O)Nc3nc4c(F)cc(F)cc4s3)C2)cc1` (centres unmarked) [JUF-S4-009] as the compound, how does the “GC-A activity (in words)” value (human GC-A) read?
A: active

Q: With `O=C(Nc1nc2c(F)cc(F)cc2s1)C1CCCN(CCn2cccn2)C1` (centres unmarked) [JUF-S4-012] as the compound, how does the “GC-A activity (in words)” value (human GC-A) read?
A: tolerated

Q: And the LLE (human GC-A; Table 1)?
A: 2.91

Q: For `O=C(Nc1nc2c(F)cc(F)cc2s1)C1CCCN(CCN2CCCC2=O)C1` (centres unmarked) [JUF-S4-014], which “GC-A activity (in words)” value (human GC-A) is on record?
A: loss of activity

Q: What about the Emax (human GC-A; [2]) of the same compound?
A: 105%

Q: Which Emax (human GC-A; [2]) does the source give for `CN1CCC(N2CCCC(C(=O)Nc3nc4c(F)cc(F)cc4s3)C2)C1` (centres unmarked) [JUF-S4-015] here?
A: 89%

Q: What about the LLE (human GC-A; Table 1) of the same compound?
A: 4.09- 4.39

Q: And the EC50 (human GC-A; [3])?
A: 0.13 µM

Q: With `CN1CCCC(N2CCCC(C(=O)Nc3nc4c(F)cc(F)cc4s3)C2)C1` (centres unmarked) [JUF-S4-016] as the compound, how does the Emax (human GC-A; [2]) read?
A: 97%

Q: For `Cn1cc(N2CCCC(C(=O)Nc3nc4c(F)cc(F)cc4s3)C2)cn1` (centres unmarked) [JUF-S4-023], which Emax (human GC-A; [2]) is on record?
A: 81 to 86%

Q: And the EC50 (human GC-A; [3])?
A: 2.1 to 4.9 µM

Q: For `O=C(Nc1nc2c(F)cc(F)cc2s1)C1CCCN(c2cccnc2)C1` (centres unmarked) [JUF-S4-025], which Emax (human GC-A; [2]) is on record?
A: 104 to 135%

Q: What about the EC50 (human GC-A; [3]) of the same compound?
A: 2.5 to 7.4 µM

Q: What does the source list for `O=C(Nc1nc2c(F)cc(F)cc2s1)C1CCCN(c2ccncc2)C1` (centres unmarked) [JUF-S4-026]?
A: hERG binding (in words) (hERG channel): did not result in selectivity over hERG binding; GC-A activity (in words) (human GC-A): active; also recorded: more active than MCUF-651; LLE (human GC-A; Table 1): 3.28- 3.72

Q: With `O=C(Nc1nc2c(F)cc(F)cc2s1)C1CCCN(C2CNC2)C1` (centres unmarked) [JUF-S4-029A] as the compound, how does the Emax (human GC-A; [2]) read?
A: 84 to 89%

Q: And the EC50 (human GC-A; [3])?
A: 0.08 to 0.2 µM

Q: Which “hERG binding (in words)” value (hERG channel) does the source give for `CN1CC(N2CCCC(C(=O)Nc3nc4c(F)cc(F)cc4s3)C2)C1` (centres unmarked) [JUF-S4-029] here?
A: did not eliminate hERG binding

Q: What about the “toxicity from binding at hERG channel and other off-target toxicity (in words)” value (hERG channel) of the same compound?
A: reduced toxicity

Q: What about the selectivity ratio (hERG channel; human, compared to MCUF-651, read-out: selectivity for GC-A vs hERG relative to MCUF-651) of the same compound?
A: 50 to 100

Q: And the “GC-A activity (in words)” value (human GC-A)?
A: high potency in activation of GC-A

Q: What about the LLE (human GC-A; Table 1) of the same compound?
A: 5.11

Q: What about the “potency in activation of GC-A relative to MCUF-651” value (human GC-A; compared to MCUF-651) of the same compound?
A: ~ 10 fold

Q: With `CN(C)CCN1CC(C(=O)Nc2nc3c(F)cc(F)cc3s2)CCC1=O` (centres unmarked) [JUF-S11-001] as the compound, how does the EC50 (human GC-A; Table 2, Formula (I-b), cGMP potentiation, ANP at EC20, read-out: EC50) read?
A: > 5 µM

Q: Which IC50 (human GC-A) does the source give for `O=C(Nc1nc2c(F)cc(F)cc2s1)C1CNCCN1C(=O)OCc1ccccc1` (centres unmarked) [JUF-S11-002A] here?
A: > 5 µM

Q: Which IC50 (human GC-A) does the source give for `O=C(Nc1nc2c(F)cc(F)cc2s1)C1CNCCO1` (centres unmarked) [JUF-S11-003A] here?
A: > 5 µM

Q: For `CN(C)CCN1CCOC(C(=O)Nc2nc3c(F)cc(F)cc3s2)C1` (centres unmarked) [JUF-S11-003], which IC50 (human GC-A) is on record?
A: > 5 µM

Q: For `CN(C)CCN1CCCC(C(=O)Nc2nc3c(F)cc(F)cc3s2)C1` (centres unmarked) [MCUF 651, reference compound], which “Emax values of internal control” value (human GC-A; FIG. 2, titrated on each 384-test plate) is on record?
A: 80-100 % response

Q: What about the EC50 (human GC-A; FIG. 2, titrated on each 384-test plate, read-out: Acceptable EC50 values of internal control) of the same compound?
A: 0.2 to 0.6 µM

Q: What does the source list for `CN(C)CCN1CCCC(C(=O)Nc2nc3c(F)cc(F)cc3s2)C1` (centres unmarked) [MCUF-651]?
A: in vivo activity (in words) [1]: active in vivo; oral bioavailability (in words) ([1]; in vivo, po): orally bioavailable; Emax (human GC-A; control on each assay plate, read-out: Emax range of control compound): 75 to 85%

Source: patent US20260234137A1, “BICYCLIC ENHANCERS OF THE PARTICULATE GUANYLYL CYCLASE RECEPTOR A” (University of Florida Research Foundation, Incorporated, priority 2022, published 2026)
